{"source": "patent US12661345B2", "about": "“Compositions for the treatment of hypertension” (The George Institute for Global Health, priority 2017, dated 2026)", "test_system": "participants with migraine", "details": "human, in vivo", "note": "Read-outs that look alike come from different tables or passages of the source.", "from_the_text": "Difference between groups in participant withdrawals from treatment • 2.", "data": [{"smiles": "CC(C)NCC(O)COc1cccc2ccccc12", "note": "(centres unmarked) [Propranolol, propranolol]", "values": [{"measurement": "Discontinuing the study (n/N)", "setting": "4 week", "value": "0/10"}, {"measurement": "Discontinuing the study (percent)", "setting": "4 week", "value": "(0.0%)"}, {"measurement": "Discontinuing the study (n/N)", "setting": "8 week", "value": "0/10"}, {"measurement": "Discontinuing the study (percent)", "setting": "8 week", "value": "(0.0%)"}, {"measurement": "Discontinuing the study (n/N)", "setting": "12 week", "value": "0/10"}, {"measurement": "Discontinuing the study (percent)", "setting": "12 week", "value": "(0.0%)"}, {"measurement": "Deceased (n/N)", "setting": "16 week", "value": "0/10"}, {"measurement": "Deceased (percent)", "setting": "16 week", "value": "(0.0%)"}]}]}
